Key:
[1] = target: T1, Axl(h) (Homo sapiens, UniProt P30530); test: Upstate kinase activity inhibition assay Axl(h); format: biochemical; conditions: 40 min; read-out: percentage of enzyme activity that remains
T1 construct: purchased Upstate (KinaseProfiler service)

[2] = target: T2, CK2α2(h) (Homo sapiens, UniProt P19784); test: Upstate kinase activity inhibition assay CK2α2(h); format: biochemical; conditions: 40 min; read-out: percentage of enzyme activity that remains
T2 construct: purchased Upstate (KinaseProfiler service)

[3] = target: T3, cKit(D816V)(h) (Homo sapiens, UniProt P10721, D816V); test: Upstate kinase activity inhibition assay cKit(D816V)(h); format: biochemical; conditions: 40 min, read-out: percentage of enzyme activity that remains
T3 construct: purchased Upstate (KinaseProfiler service)

[4] = target: T4, c-RAF(h) (Homo sapiens, UniProt P04049, Y340D/Y341D); test: Upstate kinase activity inhibition assay c-RAF(h); format: biochemical; conditions: 40 min; read-out: percentage of enzyme activity that remains
T4 construct: purchased Upstate (KinaseProfiler service)

[5] = target: cSRC(h) (Homo sapiens, UniProt P12931); test: Upstate kinase activity inhibition assay cSRC(h); format: biochemical; conditions: 40 min; read-out: percentage of enzyme activity that remains
[6] = target: T5, EphA7(h) (Homo sapiens, UniProt Q15375); test: Upstate kinase activity inhibition assay EphA7(h); format: biochemical; conditions: 40 min; read-out: percentage of enzyme activity that remains
T5 construct: purchased Upstate (KinaseProfiler service)

[7] = target: T6, Fer(h) (Homo sapiens, UniProt P16591); test: Upstate kinase activity inhibition assay Fer(h); format: biochemical; conditions: 40 min; read-out: percentage of enzyme activity that remains
T6 construct: purchased Upstate (KinaseProfiler service)
T6 sequence (P16591 whole entry): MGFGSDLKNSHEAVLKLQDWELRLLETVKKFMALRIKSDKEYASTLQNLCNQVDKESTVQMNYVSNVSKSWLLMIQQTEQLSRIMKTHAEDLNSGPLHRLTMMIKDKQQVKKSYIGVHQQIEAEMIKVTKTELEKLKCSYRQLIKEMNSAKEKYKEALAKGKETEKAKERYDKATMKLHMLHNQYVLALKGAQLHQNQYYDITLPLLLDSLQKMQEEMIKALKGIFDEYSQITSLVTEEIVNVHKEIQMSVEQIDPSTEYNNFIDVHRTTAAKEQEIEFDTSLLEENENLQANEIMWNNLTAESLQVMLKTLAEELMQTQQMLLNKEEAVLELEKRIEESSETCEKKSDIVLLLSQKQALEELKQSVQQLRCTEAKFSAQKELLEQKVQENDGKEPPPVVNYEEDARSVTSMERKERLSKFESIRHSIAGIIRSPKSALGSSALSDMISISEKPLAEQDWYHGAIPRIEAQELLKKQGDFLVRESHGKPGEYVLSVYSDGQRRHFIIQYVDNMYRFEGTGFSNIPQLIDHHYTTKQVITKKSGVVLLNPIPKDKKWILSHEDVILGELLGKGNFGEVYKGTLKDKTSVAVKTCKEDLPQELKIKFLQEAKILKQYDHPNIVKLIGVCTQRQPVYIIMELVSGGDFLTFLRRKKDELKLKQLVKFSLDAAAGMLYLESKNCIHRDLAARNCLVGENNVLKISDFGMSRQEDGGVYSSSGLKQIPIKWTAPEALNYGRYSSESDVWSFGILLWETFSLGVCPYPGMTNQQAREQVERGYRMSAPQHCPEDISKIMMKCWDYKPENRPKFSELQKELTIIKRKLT

[8] = target: T7, MINK(h) (Homo sapiens, UniProt Q8N4C8); test: Upstate kinase activity inhibition assay MINK(h); format: biochemical; conditions: 40 min; read-out: percentage of enzyme activity that remains
T7 construct: purchased Upstate (KinaseProfiler service)

[9] = target: T8, PDGFRβ(h) (Homo sapiens, UniProt P09619); test: Upstate kinase activity inhibition assay PDGFRβ(h); format: biochemical; conditions: 40 min; read-out: percentage of enzyme activity that remains
T8 construct: purchased Upstate (KinaseProfiler service)

[10] = target: T9, PKCβI(h) (Homo sapiens, UniProt P05771); test: Upstate kinase activity inhibition assay PKCβI(h); format: biochemical; conditions: 40 min; read-out: percentage of enzyme activity that remains
T9 construct: purchased Upstate (KinaseProfiler service)

[11] = target: T10, Ret(h) (Homo sapiens, UniProt P07949); test: Upstate kinase activity inhibition assay Ret(h); format: biochemical; conditions: 40 min; read-out: percentage of enzyme activity that remains
T10 construct: purchased Upstate (KinaseProfiler service)

[12] = target: Arg(h) (Homo sapiens, UniProt P42684); test: Upstate kinase activity inhibition assay Arg(h); conditions: 40 min, read-out: percentage of enzyme activity that remains
[13] = target: BRK(h) (Homo sapiens, UniProt Q13882); test: Upstate kinase activity inhibition assay BRK(h); conditions: 40 min, read-out: percentage of enzyme activity that remains
[14] = target: Syk(h) (Homo sapiens, UniProt P43405); test: Upstate kinase activity inhibition assay Syk(h)
[15] = target: CHK1(h) (Homo sapiens, UniProt O14757); test: Upstate kinase activity inhibition assay CHK1(h)
[16] = target: DMPK(h) (Homo sapiens, UniProt Q09013); test: Upstate kinase activity inhibition assay DMPK(h); conditions: 40 min, read-out: percentage of enzyme activity that remains
[17] = target: Flt3(h) (Homo sapiens, UniProt P36888); test: Upstate kinase activity inhibition assay Flt3(h); conditions: 40 min, read-out: percentage of enzyme activity that remains
[18] = target: Flt4(h) (Homo sapiens, UniProt P35916); test: Upstate kinase activity inhibition assay Flt4(h); conditions: 40 min, read-out: percentage of enzyme activity that remains
[19] = target: JAK3(h) (Homo sapiens, UniProt P52333); test: Upstate kinase activity inhibition assay JAK3(h); conditions: 40 min, read-out: percentage of enzyme activity that remains
[20] = target: MST2(h) (Homo sapiens, UniProt Q13188); test: Upstate kinase activity inhibition assay MST2(h); conditions: 40 min, read-out: percentage of enzyme activity that remains
[21] = target: MuSK(h) (Homo sapiens, UniProt O15146); test: Upstate kinase activity inhibition assay MuSK(h); conditions: 40 min, read-out: percentage of enzyme activity that remains
Chain of MuSK(h) (O15146 24-869): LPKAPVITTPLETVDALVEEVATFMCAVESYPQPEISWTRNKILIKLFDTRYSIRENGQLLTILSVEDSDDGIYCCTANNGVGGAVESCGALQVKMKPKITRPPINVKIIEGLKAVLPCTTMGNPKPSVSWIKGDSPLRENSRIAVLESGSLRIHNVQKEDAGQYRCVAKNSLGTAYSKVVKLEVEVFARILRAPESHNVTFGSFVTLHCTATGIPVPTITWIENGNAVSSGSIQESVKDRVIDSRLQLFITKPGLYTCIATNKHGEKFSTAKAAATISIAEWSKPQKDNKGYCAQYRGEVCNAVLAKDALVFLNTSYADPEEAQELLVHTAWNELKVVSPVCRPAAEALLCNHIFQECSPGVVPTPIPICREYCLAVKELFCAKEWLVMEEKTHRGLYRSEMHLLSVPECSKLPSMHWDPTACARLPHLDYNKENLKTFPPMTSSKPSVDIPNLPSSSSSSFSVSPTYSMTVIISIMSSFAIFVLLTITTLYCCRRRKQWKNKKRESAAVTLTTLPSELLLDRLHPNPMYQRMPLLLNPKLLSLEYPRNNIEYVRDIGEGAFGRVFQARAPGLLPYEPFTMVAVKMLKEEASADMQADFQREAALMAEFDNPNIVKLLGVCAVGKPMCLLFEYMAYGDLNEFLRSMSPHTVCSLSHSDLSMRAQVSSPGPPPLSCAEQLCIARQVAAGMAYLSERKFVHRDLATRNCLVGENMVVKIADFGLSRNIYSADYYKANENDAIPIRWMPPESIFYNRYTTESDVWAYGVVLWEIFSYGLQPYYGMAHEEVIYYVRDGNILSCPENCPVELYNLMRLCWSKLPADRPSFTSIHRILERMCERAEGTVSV

[22] = target: NEK3(h) (Homo sapiens, UniProt P51956); test: Upstate kinase activity inhibition assay NEK3(h); conditions: 40 min, read-out: percentage of enzyme activity that remains
Chain of NEK3(h) (P51956 whole entry): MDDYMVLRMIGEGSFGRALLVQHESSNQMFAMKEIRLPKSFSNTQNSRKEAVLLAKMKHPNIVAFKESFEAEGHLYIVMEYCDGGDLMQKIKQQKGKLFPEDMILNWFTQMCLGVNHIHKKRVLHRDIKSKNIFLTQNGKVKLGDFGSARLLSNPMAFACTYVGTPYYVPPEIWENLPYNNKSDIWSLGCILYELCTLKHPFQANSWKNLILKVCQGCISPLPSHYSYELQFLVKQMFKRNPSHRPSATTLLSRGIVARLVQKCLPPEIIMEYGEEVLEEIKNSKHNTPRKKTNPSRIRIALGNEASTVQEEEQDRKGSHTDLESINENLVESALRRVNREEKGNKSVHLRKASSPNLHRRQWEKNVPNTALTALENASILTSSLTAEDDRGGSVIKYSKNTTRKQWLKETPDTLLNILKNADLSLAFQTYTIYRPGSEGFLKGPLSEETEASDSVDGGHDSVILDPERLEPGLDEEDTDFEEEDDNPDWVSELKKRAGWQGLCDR

[23] = target: PAK4(h) (Homo sapiens, UniProt O96013); test: Upstate kinase activity inhibition assay PAK4(h); conditions: 40 min, read-out: percentage of enzyme activity that remains
[24] = target: PAK6(h) (Homo sapiens, UniProt Q9NQU5); test: Upstate kinase activity inhibition assay PAK6(h); conditions: 40 min, read-out: percentage of enzyme activity that remains
Chain of PAK6(h) (Q9NQU5 whole entry): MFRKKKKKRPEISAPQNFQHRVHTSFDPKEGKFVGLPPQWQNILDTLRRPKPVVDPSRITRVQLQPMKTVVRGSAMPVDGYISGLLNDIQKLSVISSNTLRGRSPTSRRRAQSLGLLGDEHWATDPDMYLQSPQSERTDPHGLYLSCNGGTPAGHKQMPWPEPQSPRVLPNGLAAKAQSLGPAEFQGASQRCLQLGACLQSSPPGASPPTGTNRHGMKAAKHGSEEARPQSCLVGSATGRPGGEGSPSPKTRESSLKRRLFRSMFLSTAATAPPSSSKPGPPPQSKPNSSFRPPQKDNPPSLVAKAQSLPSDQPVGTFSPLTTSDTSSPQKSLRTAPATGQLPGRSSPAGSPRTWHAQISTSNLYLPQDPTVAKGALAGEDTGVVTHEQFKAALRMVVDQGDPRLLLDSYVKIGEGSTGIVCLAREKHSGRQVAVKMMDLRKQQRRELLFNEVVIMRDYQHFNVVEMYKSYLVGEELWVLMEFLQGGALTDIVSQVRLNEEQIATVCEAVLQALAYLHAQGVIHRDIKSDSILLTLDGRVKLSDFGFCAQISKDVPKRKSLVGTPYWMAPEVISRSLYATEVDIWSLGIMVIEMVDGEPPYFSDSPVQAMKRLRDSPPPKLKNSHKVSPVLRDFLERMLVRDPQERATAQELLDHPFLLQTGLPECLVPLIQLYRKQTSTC

[25] = target: TAK1(h) (Homo sapiens, UniProt O43318); test: Upstate kinase activity inhibition assay TAK1(h); conditions: 40 min, read-out: percentage of enzyme activity that remains
[26] = target: CaMKIV(h) (Homo sapiens, UniProt Q16566); test: Upstate kinase activity inhibition assay CaMKIV(h); conditions: 40 min, read-out: percentage of enzyme activity that remains
[27] = target: ROCK-I(h) (Homo sapiens, UniProt Q13464); test: Upstate kinase activity inhibition assay ROCK-I(h); conditions: 40 min, read-out: percentage of enzyme activity that remains
Chain of ROCK-I(h) (Q13464 whole entry): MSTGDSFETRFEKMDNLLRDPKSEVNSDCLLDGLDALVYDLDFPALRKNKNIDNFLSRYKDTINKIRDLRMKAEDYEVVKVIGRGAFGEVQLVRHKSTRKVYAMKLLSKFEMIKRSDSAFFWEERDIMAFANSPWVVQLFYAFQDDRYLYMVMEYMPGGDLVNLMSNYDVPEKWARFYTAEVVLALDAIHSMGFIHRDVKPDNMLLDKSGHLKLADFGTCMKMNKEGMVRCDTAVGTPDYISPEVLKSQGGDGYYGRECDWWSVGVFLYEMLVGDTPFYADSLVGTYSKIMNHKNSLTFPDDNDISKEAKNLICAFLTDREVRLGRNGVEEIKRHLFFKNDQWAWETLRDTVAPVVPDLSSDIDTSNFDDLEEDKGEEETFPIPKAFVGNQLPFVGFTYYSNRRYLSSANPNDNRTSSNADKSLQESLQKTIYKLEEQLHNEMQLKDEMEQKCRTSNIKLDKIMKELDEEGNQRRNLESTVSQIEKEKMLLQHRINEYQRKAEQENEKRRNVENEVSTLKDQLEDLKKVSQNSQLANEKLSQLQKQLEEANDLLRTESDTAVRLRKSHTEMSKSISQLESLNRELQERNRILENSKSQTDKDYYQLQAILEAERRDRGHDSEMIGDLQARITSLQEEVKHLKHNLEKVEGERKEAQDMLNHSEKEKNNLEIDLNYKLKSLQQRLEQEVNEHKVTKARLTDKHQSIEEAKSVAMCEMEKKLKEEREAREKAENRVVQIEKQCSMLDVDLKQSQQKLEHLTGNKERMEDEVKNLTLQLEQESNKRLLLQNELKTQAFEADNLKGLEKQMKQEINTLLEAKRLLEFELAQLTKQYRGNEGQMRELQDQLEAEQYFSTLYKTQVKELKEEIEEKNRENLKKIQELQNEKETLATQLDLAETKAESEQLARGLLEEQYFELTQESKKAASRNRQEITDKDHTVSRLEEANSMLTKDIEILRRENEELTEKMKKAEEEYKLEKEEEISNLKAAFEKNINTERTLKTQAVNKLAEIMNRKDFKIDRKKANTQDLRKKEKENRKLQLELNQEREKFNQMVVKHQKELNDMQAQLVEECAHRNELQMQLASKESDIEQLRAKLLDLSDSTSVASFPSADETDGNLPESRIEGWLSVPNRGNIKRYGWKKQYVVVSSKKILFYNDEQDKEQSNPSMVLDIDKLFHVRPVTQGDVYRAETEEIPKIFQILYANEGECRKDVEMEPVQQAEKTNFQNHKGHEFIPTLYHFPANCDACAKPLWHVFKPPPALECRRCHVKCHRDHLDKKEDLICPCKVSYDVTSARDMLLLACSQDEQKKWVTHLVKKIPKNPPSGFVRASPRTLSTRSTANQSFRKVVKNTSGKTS

[28] = target: Flt3(D835Y)(h) (Homo sapiens, UniProt P36888, D835Y); test: Upstate kinase activity inhibition assay Flt3(D835Y)(h); conditions: 40 min, read-out: percentage of enzyme activity that remains
[29] = target: CDK1/cyclinB(h) (Homo sapiens, UniProt P06493); test: Upstate kinase activity inhibition assay CDK1/cyclinB(h); conditions: 40 min, read-out: percentage of enzyme activity that remains
Chain of CDK1/cyclinB(h) (P06493 whole entry): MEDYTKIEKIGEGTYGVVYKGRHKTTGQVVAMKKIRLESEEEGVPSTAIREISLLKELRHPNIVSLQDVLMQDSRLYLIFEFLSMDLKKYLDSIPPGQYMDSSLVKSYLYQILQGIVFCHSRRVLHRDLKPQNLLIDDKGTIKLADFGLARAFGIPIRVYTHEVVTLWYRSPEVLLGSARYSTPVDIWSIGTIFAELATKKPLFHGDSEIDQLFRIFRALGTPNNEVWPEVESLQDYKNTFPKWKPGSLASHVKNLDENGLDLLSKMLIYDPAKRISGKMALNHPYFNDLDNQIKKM
Chain of CDK1/cyclinB(h) (P14635 whole entry partner): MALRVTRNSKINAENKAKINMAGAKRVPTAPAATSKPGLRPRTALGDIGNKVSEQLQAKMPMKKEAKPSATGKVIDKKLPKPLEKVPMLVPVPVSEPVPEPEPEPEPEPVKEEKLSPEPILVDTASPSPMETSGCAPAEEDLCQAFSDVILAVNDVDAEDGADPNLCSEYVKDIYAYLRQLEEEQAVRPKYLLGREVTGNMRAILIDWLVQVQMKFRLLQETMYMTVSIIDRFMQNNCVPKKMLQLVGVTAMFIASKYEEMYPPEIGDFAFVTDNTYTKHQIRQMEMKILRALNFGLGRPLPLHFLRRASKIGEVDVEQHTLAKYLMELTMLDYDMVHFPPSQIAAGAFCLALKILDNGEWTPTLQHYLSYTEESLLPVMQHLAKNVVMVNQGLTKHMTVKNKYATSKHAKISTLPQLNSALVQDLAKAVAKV

Cc1cc(Nc2cc(N3CCN(C)CC3)nc(Sc3ccc(NC(=O)C4CC4)cc3)n2)n[nH]1 [Compound E, Cyclopropane carboxylic acid {4-[4-(4-methyl-piperazin-1-yl)-6-(5-methyl-2H-pyrazol-3-ylamino)-pyrimidin-2-ylsulphanyl]-phenyl}-amide] gave a remaining activity at 0.2 µM [1] of 79%, a remaining activity at 4 µM [1] of 19% and a remaining activity at 0.2 µM [2] of 100%. For the same compound, the remaining activity at 0.2 µM [3] was 89%, the remaining activity at 4 µM [3] was 79% and the remaining activity at 0.2 µM [4] was 106%. It also gave a remaining activity at 4 µM [4] of 100%, a remaining activity at 0.2 µM [5] of 87% and a remaining activity at 4 µM [5] of 25%. For the same compound, the remaining activity at 4 µM [6] was 78%, the remaining activity at 0.2 µM [7] was 100% and the remaining activity at 4 µM [7] was 48%. For the same compound, the remaining activity at 0.2 µM [8] was 103%, the remaining activity at 4 µM [8] was 82% and the remaining activity at 0.2 µM [9] was 102%. It also gave a remaining activity at 4 µM [9] of 90%, a remaining activity at 0.2 µM [10] of 100% and a remaining activity at 4 µM [10] of 98%. It also gave a remaining activity at 0.2 µM [11] of 34%, a remaining activity at 4 µM [11] of 2% and a remaining activity at 0.2 µM [12] of 8%. The remaining activity at 4 µM [12] was -1%, the remaining activity at 0.2 µM [13] was 102% and the remaining activity at 4 µM [13] was 83%. The “percentage of enzyme activity that remains” value ([14]; 0.2 μM Compound E) was 113%, the “percentage of enzyme activity that remains” value ([14]; 4 μM Compound E) was 63% and the “percentage of enzyme activity that remains” value ([15]; 0.2 μM Compound E) was 99%. The “percentage of enzyme activity that remains” value ([15]; 4 μM Compound E) was 92%, the remaining activity at 0.2 µM [16] was 95% and the remaining activity at 4 µM [16] was 103%. For the same compound, the remaining activity at 0.2 µM [17] was 21%, the remaining activity at 4 µM [17] was 7% and the remaining activity at 4 µM [18] was 10%. The remaining activity at 0.2 µM [19] was 107%, the remaining activity at 4 µM [19] was 105% and the remaining activity at 0.2 µM [20] was 92%. It also gave a remaining activity at 4 µM [20] of 74%, a remaining activity at 0.2 µM [21] of 89% and a remaining activity at 4 µM [21] of 8%. The remaining activity at 0.2 µM [22] was 102%, the remaining activity at 4 µM [22] was 125% and the remaining activity at 0.2 µM [23] was 85%. For the same compound, the remaining activity at 4 µM [23] was 75%, the remaining activity at 0.2 µM [24] was 92% and the remaining activity at 4 µM [24] was 92%. It also gave a remaining activity at 0.2 µM [25] of 99%, a remaining activity at 4 µM [25] of 66% and a remaining activity at 0.2 µM [26] of 100%. It also gave a remaining activity at 4 µM [26] of 99%, a remaining activity at 0.2 µM [27] of 99% and a remaining activity at 4 µM [27] of 91%. It also gave a remaining activity at 0.2 µM [28] of 50%, a remaining activity at 4 µM [28] of 7% and a remaining activity at 0.2 µM [29] of 108%. For the same compound, the remaining activity at 4 µM [29] was 102%.

Reference: patent US20090105270A1, “Kinase inhibition and anticancer therapy” (priority 2007, published 2009)
